# Test results as given in paper PMC7618597, “Dual Nurr1/RXR agonism of valerenic acid and synthetic mimetics enables dimer-selective Nurr1 modulation” (ACS medicinal chemistry letters, 2025).
# pEC50: −log10 of the molar value.
# Tests used:
# Format in all cases: cell-based
# [1] = target: T1, full-length Nurr1 monomer (NBRE) (Homo sapiens, UniProt P43354); assay: Full-length Nurr1 reporter gene assay, monomer response element NBRE
# T1 construct: full-length human nuclear receptor Nurr1 encoded by pcDNA3.1 -hNurr1-NE; host or cells: HEK293T
# Procedure: (§1) Based on these findings, we next determined the effects of 2 and 3 on Nurr1 activity in a cellular setting using reporter constructs for the NGFI-B response element (NBRE), the Nur response element (NurRE), and the direct repeat 5 (DR5)[36]. All three response elements are robustly activated by common Nurr1 agonists[4],[31]. […]
# modified Eagle’s medium (DMEM), high glucose supplemented with 10% fetal calf serum (FCS), sodium pyruvate (1 mM), penicillin (100 U/mL), and streptomycin (100 μg/mL) at 37 °C and 5% CO2 and seeded in 96-well plates (3×10^4 cells/well). […] Five hours after transfection, the cells were incubated with the test compounds in Opti-MEM supplemented with penicillin (100 U/mL), streptomycin (100 μg/mL), and 0.1% DMSO for 15 h before luciferase activity was measured using the Dual -Glo Luciferase Assay System (Promega) according to the manufacturer’s protocol on a Tecan Spark l uminometer (Tecan Deutschland GmbH, Germany). Firefly luminescence was divided by Renilla luminescence and multiplied by 1000, resulting in relative light units (RLU) to normalize for transfection efficiency and cell growth. […]
# Reporter gene assays for full-length human Nurr1 and RXR. […] Firefly luminescence was divided by Renilla luminescence and multiplied by 1000, resulting in relative light units (RLU) to normalize for transfection efficiency and cell growth. […]
# [2] = target: T2, Nurr1:RXR heterodimer (DR5) (Homo sapiens, UniProt P19793+P43354); assay: Full-length Nurr1 reporter gene assay, heterodimer response element DR5; settings: read-out: EC50, activation of the Nurr1:RXR heterodimer (DR5)
# T2 construct: full-length human nuclear receptor Nurr1 encoded by pcDNA3.1 -hNurr1-NE; full length human RXRα encoded by pSG5-hRXR; host or cells: HEK293T
# Procedure: as §1
# (§2) Reporter gene assays for full-length human Nurr1 and RXR. Modulation of full-length human Nurr1 (NR4A2) was studied using pRL-SV40 (1.5 ng/well reporter plasmid) and the previously described4 reporter plasmids pFR-Luc-NBRE (100 ng/well reporter plasmid), pFR-Luc-NurRE (50 ng/well reporter plasmid) or pFR-Luc-DR5 (50 ng/well reporter plasmid). […] Five hours after transfection, the cells wer e incubated with the test compounds in Opti-MEM supplemented with penicillin (100 U/mL), streptomycin (100 μg/mL), and 0.1% DMSO for 15 h before luciferase activity was measured using the Dual-Glo Luciferase Assay System (Promega) according to the manufacturer’s protocol on a Tecan Spark luminometer (Tecan Deutschland GmbH, Germany). Firefly luminescence was divided by Renilla luminescence and multiplied by 1000, resulting in relative light units (RLU) to normalize for transfection efficiency and cell growth. […]
# [3] = target: T3, full-length Nurr1 homodimer (NurRE) (Homo sapiens, UniProt P43354); assay: Full-length Nurr1 reporter gene assay, homodimer response element NurRE
# T3 construct: full-length human nuclear receptor Nurr1 encoded by pcDNA3.1 -hNurr1-NE; host or cells: HEK293T
# Procedure: as §1, §2
# T2 sequence (P43354 whole entry): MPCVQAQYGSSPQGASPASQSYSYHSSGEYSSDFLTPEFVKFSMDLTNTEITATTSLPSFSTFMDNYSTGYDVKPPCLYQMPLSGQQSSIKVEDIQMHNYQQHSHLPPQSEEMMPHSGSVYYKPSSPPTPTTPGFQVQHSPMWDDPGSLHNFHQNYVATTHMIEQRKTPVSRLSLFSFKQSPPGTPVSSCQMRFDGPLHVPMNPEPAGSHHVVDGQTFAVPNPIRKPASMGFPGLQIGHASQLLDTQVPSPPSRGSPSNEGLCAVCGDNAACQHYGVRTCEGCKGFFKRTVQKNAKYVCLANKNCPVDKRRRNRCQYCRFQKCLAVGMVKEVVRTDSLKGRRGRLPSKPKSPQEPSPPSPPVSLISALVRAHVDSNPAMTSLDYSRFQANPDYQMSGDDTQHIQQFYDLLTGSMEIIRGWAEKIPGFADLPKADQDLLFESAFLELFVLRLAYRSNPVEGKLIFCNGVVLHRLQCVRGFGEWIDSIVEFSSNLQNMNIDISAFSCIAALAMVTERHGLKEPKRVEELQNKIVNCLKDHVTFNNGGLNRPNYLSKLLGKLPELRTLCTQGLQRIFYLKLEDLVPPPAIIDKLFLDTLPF
# T2 sequence (P19793 whole entry): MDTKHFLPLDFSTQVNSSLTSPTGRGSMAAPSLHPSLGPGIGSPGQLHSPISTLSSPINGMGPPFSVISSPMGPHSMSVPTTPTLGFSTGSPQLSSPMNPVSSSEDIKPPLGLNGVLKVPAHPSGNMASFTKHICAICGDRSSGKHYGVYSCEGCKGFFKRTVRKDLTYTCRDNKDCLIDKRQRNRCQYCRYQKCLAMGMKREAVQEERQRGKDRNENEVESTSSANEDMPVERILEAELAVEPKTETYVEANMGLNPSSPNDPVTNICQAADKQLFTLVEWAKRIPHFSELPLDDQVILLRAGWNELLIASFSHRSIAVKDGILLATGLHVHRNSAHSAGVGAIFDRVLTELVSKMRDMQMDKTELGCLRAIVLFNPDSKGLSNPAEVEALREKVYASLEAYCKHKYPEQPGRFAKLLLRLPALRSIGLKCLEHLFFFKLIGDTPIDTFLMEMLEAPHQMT
# T1 sequence (P43354 whole entry): as the sequence (P43354 whole entry) above
# T3 sequence (P43354 whole entry): as above
compound,measurement,setting,value
Cc1c2c(n(-c3ccc(CC(=O)O)cc3)c1C)CCC(F)(F)C2 [compound 2],activation on NBRE,[1],no activation was detectable
same,pEC50,[2],6.00
same,activation on NurRE,[3],no activation was detectable
Cc1c(C)n(-c2ccc(CC(=O)O)cc2)c2ccc(F)cc12 [compound 3],activation on NBRE,[1],no activation was detectable
same,pEC50,[2],6.22
same,activation on NurRE,[3],no activation was detectable
